The values that follow come from patent EP0846683B1, “4-Hydroxy-piperidine derivatives” (F. HOFFMANN-LA ROCHE AG, priority 1996, dated 1998).

One test has as its target T1, NMDA receptor (Rattus norvegicus, UniProt P35439+Q00960).
T1 construct: Membranes were prepared by homogenization of the whole brain minus cerebellum and medulla oblongata; from tissue; host or cells: rat whole brain minus cerebellum and medulla oblongata, membranes
The experiment in a line: 3H-Ro 25-6981 binding (displacement, rat brain membranes). To be noted: 5 nM 3H-Ro 25-6981, 2 hours at 4°C. The method, then: 3H-Ro 25-6981 binding (Ro 25-6981 is [R-(R*,S*)]-a-(4-Hydroxy-phenyl)-b-methyl-4-(phenyl-methyl)-1-piperidine propanol)
(§1) Male Füllinsdorf albino rats weighing between 150-200 g were used. Membranes were prepared by homogenization of the whole brain minus cerebellum and medulla oblongata with a Polytron (10.000 rpm, 30 seconds), in 25 volumes of a cold Tris-HCl 50 mM, EDTA 10 mM, pH 7.1 buffer. The homogenate was centrifuged at 48.000 g for 10 minutes at 4°C. The pellet was resuspended using the Polytron in the same volume of buffer and the homogenate was incubated at 37°C for 10 minutes. After centrifugation the pellet was homogenized in the same buffer and frozen at -80°C for at least 16 hours but not more than 10 days. For the binding assay the homogenate was thawed at 37°C, centrifuged and the pellet was washed three times as above in a Tris-HCl 5 mM, pH 7.4 cold buffer. The final pellet was resuspended in the same buffer and used at a final concentration of 200 µg of protein/ml.
3H-Ro 25-6981 binding experiments were performed using a Tris-HCl 50 mM, pH 7.4 buffer. For displacement experiments 5 nM of 3H-Ro 25-6981 were used and non specific binding was measured using 10 µM of tetrahydroisoquinoline and usually it accounts for 10% of the total. The incubation time was 2 hours at 4°C and the assay was stopped by filtration on Whatmann GF/B glass fiber filters (Unifilter-96, Packard, Zürich, Switzerland). The filters were washed 5 times with cold buffer. The radioactivity on the filter was counted on a Packard Top-count microplate scintillation counter after addition of […] of microscint 40 (Canberra Packard S.A., Zürich, Switzerland).
The effects of compounds were measured using a minimum of 8 concentrations and repeated at least once. The pooled normalized values were analyzed using a non-linear regression calculation program which provide IC50 with their relative upper and lower 95% confidence limits (RS1, BBN, USA).

For a further test, the target named is 3H-Prazosine binding. The experiment in a line: 3H-Prazosine binding (displacement, rat brain membranes). The following applies: 0.2 nM 3H-Prazosine, 30 minutes at room temperature. The method, then:
as §1, with “a Plytron” for “a Polytron”, “EDTA 10mM,” for “EDTA 10 mM,”, “Tris-HCl 5mM,” for “Tris-HCl 5 mM,”
3H-Prazosine binding experiments were performed using a Tris-HCl 50 mM, pH 7.4 buffer. For displacement experiments 0.2 nM of 3H-Prazosine were used and non specific binding was measured using 100 µM of Chlorpromazine. The incubation time was 30 minutes at room temperature and the assay was stopped by filtration on Whatman GF/B glass fiber filters (Unifilter-96, Canberra Packard S.A., Zürich, Switzerland). The filters were washed 5 times with cold buffer. The radioactivity on the filter was counted on a Packard Top-count microplate scintillation counter after addition of […] of microscint 40 (Canberra Packard S.A., Zürich, Switzerland). The effects of compounds were measured using a minimum of 8 concentrations and repeated at least once. The pooled normalized values were analyzed using a non-linear regression calculation program which provide IC50 with their relative upper and lower 95% confidence limits (RS1, BBN, USA).

A further test addresses T2, NR1C + NR2A (Rattus norvegicus, UniProt Q00959).
T2 construct: expressed in transfected cells; host or cells: Xenopus laevis oocytes, nuclear injection of pBC/CMV expression plasmids
Briefly: Electrophysiology on recombinant NMDA receptors (voltage clamp, Xenopus laevis oocytes), NR1C + NR2A. The following applies: 10 µM compound; oocytes clamped to -80 mV; 2.7 µM Glu plus 0.9 µM Gly; mean of four to six oocytes. The test is classed as cell-based. From the text: (§2) Electrophysiology on recombinant NMDA receptors
(§3) cDNA clones coding for the subunits NR1C and NR2A of the NMDA receptor (see Hollmann and Heinemann, 1994, Annu. Rev. Neurosci. 17:31 for nomenclature of NMDA receptor subunits) were isolated from a rat brain λgt11 cDNA library as published elsewhere (Sigel et al., 1994, J. Biol. Chem. 269:8204). The clone for the subunit NR2B of the rat brain NMDA receptor was obtained from S. Nakanishi (Kyoto, Japan). The cDNAs encoding rat NR1C, NR2A and NR2B were subcloned into the expression vector pBC/CMV (Bertocci et al., 1991, Proc. Natl. Acad. Sci. U.S.A. 88:1416), placing transcription of the cDNA under control of the human cytomegalovirus promoter. CsCl-purified expression plasmids were mixed in a 1:3 ratio of NR1C:NR2A or NR1C:NR2B in injection buffer (88 mM NaCI, 1 mM KCl, 15 mM HEPES, at pH 7.0). Oocytes of South African frogs (Xenopus laevis) were used for expressing either a combination of the NR1C and NR2A subunits or the NR1C and NR2B subunits. 12 to 120 pg of a 1:3 (NR1C:NR2B) mixture of the respective cDNA species were injected into the nucleus of every oocyte. On the following two days the ion current through the NMDA receptor channels was measured in voltage clamp experiments for the methods of cDNA expression in oocytes and voltage-clamping (see, e.g., Bertrand et al., 1991, Methods in Neurosciences 4:174). The membrane potential was clamped to -80 mV and the receptors were activated by applying a modified Ringer's solution containing the NMDA-receptor agonists L-glutamate (Glu) and glycine (Gly). Different agonist concentrations were chosen for either subunit combination to account for the different agonist sensitivities of the two types of receptors (2.7 µM Glu plus 0.9 µM Gly for NR1C + NR2A and 1.3 µM Glu plus 0.07 µM Gly for NR1C + NR2B). The agonists were applied for 15 s intervals once every 2.5 min by rapid superfusion of the oocyte with agonist containing solution and the amplitude of the agonist-evoked current was measured immediately before the end of each application. After a series of initial control applications the antagonist to be tested was added to both, the basal Ringer's and the agonist containing solution. The antagonist concentration applied to oocytes expressing the NR2A subunit was 10 µmol/l, whereas 0.1 µmol/l were applied to the NR2B expressing oocytes. Four to six oocytes were tested for every compound and NMDA receptor subtype. Oocytes were exposed to the compounds for 5 to 30 min depending on the time needed for reaching an equilibrium block of the NMDA receptor current. For every oocyte the decrease of the current amplitude was expressed as a percentage of the control current measured before application of the compound. Figures in the table are arithmetic mean values of these percentage values.

The next test concerns the target T3, NR1C + NR2B (Rattus norvegicus, UniProt P35439+Q00960).
T3 construct: expressed in transfected cells; host or cells: Xenopus laevis oocytes, nuclear injection of pBC/CMV expression plasmids
The experiment in a line: Electrophysiology on recombinant NMDA receptors (voltage clamp, Xenopus laevis oocytes), NR1C + NR2B. The test is classed as cell-based. The following applies: 0.1 µM compound; oocytes clamped to -80 mV; 1.3 µM Glu plus 0.07 µM Gly; mean of four to six oocytes.
Text: as §2, §3

The structures appear in SMILES notation. pIC50: −log10 of the molar value. Structures can show the parent of a compound that is named as a salt.

T1 sequence (Q00960 27-1482, other chains not shown): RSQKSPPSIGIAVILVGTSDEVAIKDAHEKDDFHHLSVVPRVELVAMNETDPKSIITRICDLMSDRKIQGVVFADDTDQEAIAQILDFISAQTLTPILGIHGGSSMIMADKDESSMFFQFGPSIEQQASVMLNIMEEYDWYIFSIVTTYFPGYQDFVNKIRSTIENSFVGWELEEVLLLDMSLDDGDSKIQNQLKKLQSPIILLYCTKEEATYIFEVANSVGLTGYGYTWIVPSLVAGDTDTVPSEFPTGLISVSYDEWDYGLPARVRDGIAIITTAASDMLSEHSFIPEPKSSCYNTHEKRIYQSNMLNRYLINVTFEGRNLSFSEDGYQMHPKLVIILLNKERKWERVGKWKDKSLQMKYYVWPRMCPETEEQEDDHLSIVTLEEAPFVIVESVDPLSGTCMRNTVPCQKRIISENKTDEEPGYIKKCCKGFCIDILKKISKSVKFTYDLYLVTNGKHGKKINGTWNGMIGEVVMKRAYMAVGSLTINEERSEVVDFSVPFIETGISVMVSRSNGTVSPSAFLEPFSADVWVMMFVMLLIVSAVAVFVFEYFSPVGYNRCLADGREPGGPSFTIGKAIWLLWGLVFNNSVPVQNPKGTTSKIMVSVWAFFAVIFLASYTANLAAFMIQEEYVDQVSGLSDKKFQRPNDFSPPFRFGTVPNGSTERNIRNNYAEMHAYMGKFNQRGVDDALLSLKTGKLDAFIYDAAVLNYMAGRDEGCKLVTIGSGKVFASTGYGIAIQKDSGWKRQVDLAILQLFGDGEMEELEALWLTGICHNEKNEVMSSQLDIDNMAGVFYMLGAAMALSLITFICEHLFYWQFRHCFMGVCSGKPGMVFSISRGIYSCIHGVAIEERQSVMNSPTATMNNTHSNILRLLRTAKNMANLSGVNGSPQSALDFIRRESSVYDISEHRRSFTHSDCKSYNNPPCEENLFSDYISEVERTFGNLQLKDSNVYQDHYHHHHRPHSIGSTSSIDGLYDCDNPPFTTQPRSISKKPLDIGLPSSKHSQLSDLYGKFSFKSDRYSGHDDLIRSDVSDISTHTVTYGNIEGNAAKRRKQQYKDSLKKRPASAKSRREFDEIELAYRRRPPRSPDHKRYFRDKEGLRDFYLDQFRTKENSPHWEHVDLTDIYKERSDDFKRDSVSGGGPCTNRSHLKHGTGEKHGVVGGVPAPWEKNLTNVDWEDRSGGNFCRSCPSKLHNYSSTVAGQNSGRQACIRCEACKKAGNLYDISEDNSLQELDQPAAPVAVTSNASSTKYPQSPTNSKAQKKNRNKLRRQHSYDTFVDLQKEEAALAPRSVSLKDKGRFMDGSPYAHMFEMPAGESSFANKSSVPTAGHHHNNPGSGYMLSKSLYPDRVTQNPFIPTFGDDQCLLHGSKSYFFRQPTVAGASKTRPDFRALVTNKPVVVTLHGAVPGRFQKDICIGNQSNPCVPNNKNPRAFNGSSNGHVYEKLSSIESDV
T3 sequence (Q00960 27-1482, other chains not shown): as above
T2 sequence (Q00959 23-1464, other chains not shown): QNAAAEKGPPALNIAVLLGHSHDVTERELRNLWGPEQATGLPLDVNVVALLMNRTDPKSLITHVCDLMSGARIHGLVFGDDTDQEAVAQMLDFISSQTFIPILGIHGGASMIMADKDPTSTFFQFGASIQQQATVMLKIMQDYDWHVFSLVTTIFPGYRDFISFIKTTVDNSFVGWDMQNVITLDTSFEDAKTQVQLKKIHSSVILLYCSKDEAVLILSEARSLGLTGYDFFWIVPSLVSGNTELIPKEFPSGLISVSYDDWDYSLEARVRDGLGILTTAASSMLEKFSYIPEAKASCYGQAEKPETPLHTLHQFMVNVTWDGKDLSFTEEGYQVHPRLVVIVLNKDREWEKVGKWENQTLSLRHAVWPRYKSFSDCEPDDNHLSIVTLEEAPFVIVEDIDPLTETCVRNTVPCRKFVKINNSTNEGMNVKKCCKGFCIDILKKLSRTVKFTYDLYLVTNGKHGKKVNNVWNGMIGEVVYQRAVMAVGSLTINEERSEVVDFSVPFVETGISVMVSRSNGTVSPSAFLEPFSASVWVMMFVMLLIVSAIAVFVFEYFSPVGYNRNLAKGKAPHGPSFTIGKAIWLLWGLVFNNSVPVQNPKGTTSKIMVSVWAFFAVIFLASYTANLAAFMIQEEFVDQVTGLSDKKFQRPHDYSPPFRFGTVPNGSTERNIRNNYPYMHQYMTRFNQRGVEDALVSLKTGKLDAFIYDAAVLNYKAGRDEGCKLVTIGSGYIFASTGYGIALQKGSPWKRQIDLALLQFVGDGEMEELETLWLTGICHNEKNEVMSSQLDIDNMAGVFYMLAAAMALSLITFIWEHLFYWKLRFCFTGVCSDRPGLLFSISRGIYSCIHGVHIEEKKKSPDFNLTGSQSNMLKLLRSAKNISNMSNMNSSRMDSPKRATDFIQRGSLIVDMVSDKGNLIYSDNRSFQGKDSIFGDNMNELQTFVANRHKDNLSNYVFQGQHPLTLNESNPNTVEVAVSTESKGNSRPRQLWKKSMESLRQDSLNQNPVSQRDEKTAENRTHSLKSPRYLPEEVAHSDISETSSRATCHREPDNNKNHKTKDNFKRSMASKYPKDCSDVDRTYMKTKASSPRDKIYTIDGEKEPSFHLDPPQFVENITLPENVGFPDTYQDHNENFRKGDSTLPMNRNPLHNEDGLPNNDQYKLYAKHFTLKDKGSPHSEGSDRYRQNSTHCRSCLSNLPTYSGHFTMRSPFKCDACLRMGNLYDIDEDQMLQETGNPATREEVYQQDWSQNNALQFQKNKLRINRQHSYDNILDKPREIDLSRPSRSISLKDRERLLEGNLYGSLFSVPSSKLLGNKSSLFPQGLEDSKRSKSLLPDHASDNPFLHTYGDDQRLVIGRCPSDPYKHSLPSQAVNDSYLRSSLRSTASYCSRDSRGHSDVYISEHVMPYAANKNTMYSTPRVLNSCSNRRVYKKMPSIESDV

In the case of `Cc1ccc(CC2(O)CCN(CC3Cc4cc(O)ccc4O3)CC2)cc1` (racemic) [Example 2, (RS)-1-(5-Hydroxy-2,3-dihydro-benzofuran-2-ylmethyl)-4-(4-methyl-benzyl)-piperidin-4-ol hydrochloride], the pIC50 (in general, the IC50 on a negative log10 scale, so that one unit is a factor of ten) on NMDA receptor was 7.70; on 3H-Prazosine binding, 5.49.

Take `Oc1ccc2c(c1)CC(CN1CCC(O)(Cc3ccccc3)CC1)O2` (racemic) [Example 4, (RS)-4-Benzyl-1-(5-hydroxy-2,3-dihydro-benzofuran-2-ylmethyl)-piperidin-4-ol hydrochloride]: the values for the pIC50 on NMDA receptor and at 3H-Prazosine binding were 7.30 and 5.60, respectively.

For `Oc1ccc2c(c1)CC(CN1CCC(O)(Cc3ccc(F)cc3)CC1)O2` (racemic) [Example 5, (RS)-4-(4-fluoro-benzyl)-1-(5-hydroxy-2,3-dihydro-benzofuran-2-ylmethyl)-piperidin-4-ol hydrochloride], the negative-log IC50 (pIC50) is 7.40 on NMDA receptor and 5.40 at 3H-Prazosine binding.

Regarding `CCc1ccc(CC2(O)CCN(CC3Cc4cc(O)ccc4O3)CC2)cc1.Cl` (racemic) [Example 7, (RS)-4-(4-Ethyl-benzyl)-1-(5-hydroxy-2,3-dihydro-benzofuran-2-ylmethyl)-piperidin-4-ol hydrochloride], the negative logarithm of the IC50 (pIC50) at NMDA receptor is 7.92; at 3H-Prazosine binding, 5.22. Also, the “Electrophysiology NR1C + NR2A % block by 10 µM” value at NR1C + NR2A turned out to be 12%. The “Electrophysiology NR1C + NR2B % block by 0.1 µM” value on NR1C + NR2B worked out at 89%.

Turning to `Cc1ccc(CC2(O)CCN(CC3Cc4ccc(O)cc4C3)CC2)cc1` (racemic) [Example 19, (RS)-1-(5-Hydroxy-indan-2-ylmethyl)-4-(4-methyl-benzyl)-piperidin-4-ol], the negative-log IC50 (pIC50) at NMDA receptor was 7.26; on 3H-Prazosine binding, 5.49.

For `Cc1ccc(CC2(O)CCN(CC3Cc4cc(O)ccc4N3)CC2)cc1` (racemic) [Example 21, (RS)-2-[4-Hydroxy-4-(4-methyl-benzyl)-piperidin-1-ylmethyl]-2,3-dihydro-1H-indol-5-ol], the negative logarithm of the IC50 (pIC50) on NMDA receptor was 7.26; at 3H-Prazosine binding, 5.18.

For `CS(=O)(=O)Nc1ccc2c(c1)CC(CN1CCC(O)(Cc3ccc(Cl)cc3)CC1)O2` (racemic) [Example 22, (RS)-N-{2-[4-(4-chloro-benzyl)-4-hydroxy-pipiridin-1-ylmethyl]-2,3-dihydroxybenzofuran-5-yl}methane sulfonamide hydrochloride], the negative logarithm of the IC50 (pIC50) on 3H-Prazosine binding is 5.19.

Consider `Cc1ccc(CC2(O)CCN(CC3Cc4cc(NS(C)(=O)=O)ccc4O3)CC2)cc1` (racemic) [Example 23, (RS)-N(2-[4-hydroxy-4-(4-methyl-benzyl)-piperidin-1-ylmethyl]-2,3-dihydrobenzofuran-5-yl]-methane sulfonamide hydrochloride], for which the negative logarithm of the IC50 (pIC50) at NMDA receptor was 7.40; on 3H-Prazosine binding it was 5.64.

For the compound `Cc1ccc(CC2(O)CCN(C[C@H]3CCc4cc(O)ccc4[C@@H]3O)CC2)cc1.O=C(O)/C=C/C(=O)O` (racemic) [Example 27, (1RS, 2RS)-1-(1,6-Dihydroxy-1,2,3,4-tetrahydro-naphthalen-2-ylmethyl)-4-(4-methyl-benzyl)-piperidin-4-ol fumarate salt], the pIC50 on 3H-Prazosine binding was 5.22. For the same compound, the “Electrophysiology NR1C + NR2A % block by 10 µM” value on NR1C + NR2A worked out at 15%. For the same compound, at NR1C + NR2B, the “Electrophysiology NR1C + NR2B % block by 0.1 µM” value was 91%.

`Oc1ccc2c(c1)CC[C@H](CN1CCC(O)(Cc3ccccc3)CC1)[C@H]2O` (racemic) [Example 29, (1RS,2RS)-2-(4-Benzyl-4-hydroxy-piperidin-1-yl-methyl)-6-hydroxy-1,2,3,4-tetrahydro-naphthalen-1-ol]: the results for the negative-log IC50 (pIC50) at NMDA receptor and on 3H-Prazosine binding were 7.64 and 4.96, respectively.

Turning to `Cc1ccc(CC2(O)CCN(CC3CCc4cc(O)ccc4C3)CC2)cc1` (racemic) [Example 30, (RS)-1-(6-Hydroxy-1,2,3,4-tetrahydro-naphthalen-2-ylmethyl)-4-(4-methyl-benzyl)-piperidin-4-ol hydrochloride], the negative logarithm of the IC50 (pIC50) on NMDA receptor is 7.70; on 3H-Prazosine binding, 6.10.

Turning to `Cc1ccc(CC2(O)CCN(C[C@@H]3Cc4cc(O)ccc4O3)CC2)cc1.Cl` [Example 13, (S)-1-(5-Hydroxy-2,3-dihydro-benzofuran-2-ylmethyl)-4-(4-methyl-benzyl)-piperidin-4-ol hydrochloride], the negative-log IC50 (pIC50) is 7.85 on NMDA receptor and 5.22 on 3H-Prazosine binding. Further, the “Electrophysiology NR1C + NR2A % block by 10 µM” value on NR1C + NR2A is on record as 8%. Also, on NR1C + NR2B, the “Electrophysiology NR1C + NR2B % block by 0.1 µM” value is recorded as 93%.

With `Cl.Oc1ccc2c(c1)C[C@@H](CN1CCC(O)(Cc3ccc(Cl)cc3)CC1)O2` [Example 14, (S)-1-(5-Hydroxy-2,3-dihydro-benzofuran-2-ylmethyl)-4-(4-chloro-benzyl)-piperidin-4-ol hydrochloride], the negative-log IC50 (pIC50) on NMDA receptor was 8.30; on 3H-Prazosine binding, 5.22. At NR1C + NR2A, the “Electrophysiology NR1C + NR2A % block by 10 µM” value was 9%. Besides, at NR1C + NR2B, the “Electrophysiology NR1C + NR2B % block by 0.1 µM” value turned out to be 90%.

In the case of `Cc1ccc(CC2(O)CCN(CC3Cc4cc(O)ccc4C3O)CC2)cc1` (stereo not drawn) [Example 16, (1RS,2RS) and (1RS,2SR)-2-[4-Hydroxy-4-(4-methyl-benzyl)-piperidine-1-ylmethyl]-indan-1,5-diol fumarate salt], the negative-log IC50 (pIC50) was 7.64 on NMDA receptor and 5.30 at 3H-Prazosine binding. On NR1C + NR2A, the “Electrophysiology NR1C + NR2A % block by 10 µM” value is on record as 6%. Also, the “Electrophysiology NR1C + NR2B % block by 0.1 µM” value on NR1C + NR2B is 86%.
